Patent US8080529B2, “Macrolides with anti-inflammatory activity” (Glaxo Group Limited, priority 2005, dated 2011)
Read-outs that look alike come from different tables or passages of the source.

Tests used:
granulocytes [1] = experiment: Inhibition of degranulation of granulocytes (free neutrophil elastase activity); type: cell-based, human; conditions: for inhibition at 50 µM: Homo sapiens, Neutrophil, read-out: Percentage of inhibition of degranulation of granulocytes
Experimental: (§1) Granulocytes were obtained from heparinized whole blood using density gradiant centrifugation. Erythrocytes were sedimented on 3% dextran T-500 (Amersham Pharmacia Biotech AB, Uppsala, Sweden). Leukocytes were centrifuged on Ficoll (Amersham Pharmacia Biotech AB, Uppsala, Sweden) for 35 min at 600 g at 20° C. The pellet of granulocytes was cleared from remaining erythrocytes by a brief hypotonic lysis.
1×10^6 granulocytes, isolated as described above, were resuspended in RPMI-1640 medium (Institute of Immunology, Croatia), and were incubated with 10 or 50 μM of test compound together with cytochalasine B (5 μg/mL) for 2 h at 37° C. Degranulation then was induced by the addition of 0.1 μM fMLP (Sigma, USA) or 0.5 μM A23187 (Calbiochem, USA). The activity of free neutrophil elastase was determined with a chromogenic substrate specific for human neutrophil elastase, such as N-(methoxysuccinyl)-L-alanyl-L-alanyl-L-prolyl-L-valine 4-nitroanilide (Sigma Chemical Company, St Louis, Mo., USA). Elastase activity, as a marker of primary granules, was assessed in supernatant using a spectrophotometer at an absorbance of 405 nm.
Results are expressed as the percent of inhibition of degranulation in unstimulated cells, and in stimulated cells treated with fMLP or A23187.

IL-2 = experiment: Inhibition of IL-2 production by PHA-stimulated human PBMC in vitro; type: cell-based; conditions: 3 days
Experimental: (§2) Heparinized peripheral blood was obtained from healthy donors, and peripheral blood mononuclear cells (PBMC) were isolated by Histopaque 1077 (Sigma, USA) density centrifugation at 400×g for 30 minutes. Collected PBMC were centrifuged in plasma at 400×g for 10 min, resuspended and washed in RPMI 1640 (Institute of Immunology, Croatia) by centrifugation.
(§3) Peripheral blood mononuclear cells (PBMC), isolated as described above, were seeded in a 48-well plate at a concentration of 1×10^6 cells per well in the RPMI culture medium described above. Cells were stimulated with 10 μg/mL phytohaemagglutinin (PHA) (Sigma, USA) and incubated at 37° C., 5% CO2 in 90% humidity with tested compounds (10 and 50 μM) for 3 days. Cytokine concentrations were determined in supernatants by sandwich ELISA, using capture and detection antibodies (R&D, USA) according to the manufacturer's recommendations.
(§4) Inhibition (as percentage) was calculated using the following formula: % inhibition=(1−concentration of cytokines in sample/concentration of cytokines in positive control)×100.
(§5) The positive control refers to LPS-, PMA- or zymosan-stimulated samples that were not treated with test compounds.

IL-6 = experiment: Lung neutrophilia induced by bacterial lipopolysaccharide in male BALB/cJ mice: IL-6 in BALF; type: in vivo; conditions: 5 mg i.p.; 24 hours after LPS
Experimental: (§6) Male BALB/cJ mice (Iffa Credo, France), with average weight 30 g were randomly grouped (n=7 in testing group, 8 in positive control, 7 in negative control). Mice were administered intraperitoneally (i.p.) a single dose of 5 or 2.5 mg of test compound. Two hours after administration, 2 μg of bacterial lipopolysaccharide (LPS), dissolved in PBS in a volume of 60 μL, was intranasally administered to all experimental groups except the negative control group, which received the same volume (60 μL) of vehicle PBS. Animals were sacrificed approximately 24 hours after application of LPS in order to obtain bronchoalveolar lavage fluid (BALF), which was used to determine concentrations of IL-6 and TNF-α, absolute number of cells, and the percentage of neutrophils in BALF. Results are expressed as percentage of decrease of total cell number, relative number of neutrophils, and TNF-α, and IL-6 concentration in BALF of treated animals compared to positive control (LPS stimulated, but untreated animals).
(§7) Results are expressed as percentage of decrease of total cell number, relative number of neutrophils, and TNF-alpha and IL-6 concentration in BALF of treated animals compared to positive control (LPS stimulated, but untreated animals).

IL-5 = experiment: Inhibition of IL-5 production by PHA-stimulated human PBMC in vitro; type: cell-based; conditions: 3 days
Experimental: as §2, §3, §4, §5

neutrophils = experiment: Lung neutrophilia induced by bacterial lipopolysaccharide in male BALB/cJ mice: cells in BALF and lung tissue; type: in vivo; conditions: 5 mg i.p.; 24 hours after LPS
Experimental: as §6, §7
Besides accumulation of inflammatory cells in BALF, the extent and anatomic site of pulmonary inflammation induced by LPS was assessed 24 hours after PBS or LPS exposure. Accumulation of granulocytes and mononuclear cells in peribronchial (PB) and perivascular (PV) lung tissue areas and in alveolar spaces was monitored following sacrifice of the animals.

LPS-induced septic shock = experiment: Septic shock induced by bacterial lipopolysaccharide in male BALB/cJ mice; type: in vivo; conditions: 24 hours
Experimental: Male BALB/cJ mice, (Iffa Credo, Lyon, France) 8 weeks old, weighing 25 g were randomly grouped (n=10 in testing groups and 15 in control group). Animals were primed with 4 μg bacterial lipopolysaccharide (LPS) that was dissolved in saline and administered i.pl. After 18-24 hours animals were challenged by an intravenous injection of 90 μg LPS in a volume of 0.2 mL. Animals were treated with the test compounds or the vehicle (control) intraperitoneally . . . or per os 30 min prior to each injection of LPS. Survival throughout 24 hours was monitored.

TNF-α = experiment: Lung neutrophilia induced by bacterial lipopolysaccharide in male BALB/cJ mice: TNF-α in BALF; type: in vivo; conditions: 5 mg i.p.; 24 hours after LPS
Experimental: as §6, §7

granulocytes [2] = type: in vitro ADME; conditions: human, 180 min, 10 μM
Experimental: as §1
7.5×10^6 granulocytes, isolated as described above, were suspended in 3 mL of RPMI 1640 (Institute of Immunology, Croatia) containing 10 μM of tested macrolide. Samples were incubated at 37° C. for 180 min. Following incubation, the samples were centrifuged through the layer of Poly(dimethylsiloxane-co-diphenylsiloxane), dihydroxy terminated-silicone oil (Aldrich Chemical Company, Milwaukee, USA). The pellet was resuspended in 0.5% Triton X-100 (Sigma, St. Louis, USA) in deionized water (MilliQ, Millipore Corporation, Bedford, USA). The suspension was sonicated, proteins were precipitated with acetonitrile, and the concentration of macrolide in the supernatants was determined by liquid chromatography-mass spectrometry (LC-MS).
Intracellular concentrations of the test compounds were calculated from the mean cell number recovered after centrifuging through silicone oil. According to the literature, about 1 million neutrophils is considered to have a volume of 0.24 μL (Vazifeh et al., Antimicrob Agents Chemo. 1997; 41: 2099-2107). To estimate the extent of macrolide accumulation, the intracellular to extracellular concentration ratio (I/E) was calculated, where E (due to a large volume of incubation medium) was taken as constant (10 μM). Results are expressed relative to azithromycin according to the following equation: % of azithromycin uptake =(I/E of a substance/I/E of azithromycin)×100. I/E values obtained for azithromycin were 164±10.

| Structure (SMILES) | Percentage of inhibition of degranulation of granulocytes (granulocytes [1]; A23187 0.5 μM, compound 10 μM) [%] | Percentage of inhibition of degranulation of granulocytes (granulocytes [1]; A23187 0.5 μM, compound 50 μM) [%] | Percentage of inhibition of degranulation of granulocytes (granulocytes [1]; fMLP 0.1 μM, compound 10 μM) [%] | Percentage of inhibition of degranulation of granulocytes (granulocytes [1]; fMLP 0.1 μM, compound 50 μM) [%] | Percentage of inhibition of IL-2 production (IL-2; 10 μM) [%] | Percentage of inhibition of IL-2 production (IL-2; 50 μM) [%] | Percentage of decrease of IL-6 concentration in BALF (IL-6) [%] | Percentage of inhibition of IL-5 production (IL-5; 10 μM) [%] | Percentage of inhibition of IL-5 production (IL-5; 50 μM) [%] | % decrease of neutrophils in BALF (neutrophils) [%] | % decrease of total cell no. in BALF (neutrophils) [%] | Survival (%) (LPS-induced septic shock; 10 mg/kg i.p.) | Survival (%) (LPS-induced septic shock; 100 mg/kg p.o.) | Percentage of decrease of TNF-α concentration in BALF (TNF-α) [%] | inhibition at 50 µM (granulocytes [1]; A23187 0.5 μM, compound 50 μM) [%] | inhibition at 50 µM (granulocytes [1]; fMLP 0.1 μM, compound 50 μM) [%] | Survival (%) (LPS-induced septic shock; 1 mg/kg p.o.) | Survival (%) (LPS-induced septic shock; 10 mg/kg p.o.) | Uptake (% azithromycin) (granulocytes [2]) | intracellular to extracellular concentration ratio (I/E) (granulocytes [2]) |
| --- | --- | --- | --- | --- | --- | --- | --- | --- | --- | --- | --- | --- | --- | --- | --- | --- | --- | --- | --- | --- |
| CCC1OC(=O)C(C)C(OC2CC(C)(OC)C(OC(=O)CCN(CC)CC)C(C)O2)C(C)C(OC2OC(C)CC(N(C)C)C2O)C(C)(OC)CC(C)C(=O)NC(C)C(O)C1(C)O (stereo not shown) [Example 8, 4″-O-(3-Diethylamino-propionyl)-6-O-methyl-9a-aza-9a-homoerythromycin A] | 10 | 24 | 52 | 72 | 100 | 100 | 67 | 34 | 85 | 52 | 84 | 50 | 100 | 69 | – | – | – | – | – | – |
| CC[C@H]1OC(=O)[C@H](C)[C@@H](O[C@H]2C[C@@](C)(OC)[C@@H](O)[C@H](C)O2)[C@H](C)[C@@H](O[C@@H]2O[C@H](C)C[C@H](N(C)C)[C@H]2O)[C@](C)(O)C[C@@H](C)CN(C)[C@H](C)[C@@H](O)[C@]1(C)O [azithromycin, reference compound] | – | – | – | – | – | – | 72 | – | – | 37 | 77 | – | 70 | 66 | 15 | 36 | 30 | 60 | 100 | 164±10 |
